Bridge positions count the residues as written; N and C are the ends. Square brackets hold non-standard residues; d marks the D form. Peptide text beside a SMILES is read from it. dNMeW = CN[C@H](Cc1c[nH]c2ccccc12)C(=O)O; NMeY = CN[C@@H](Cc1ccc(O)cc1)C(=O)O; NMeF = CN[C@@H](Cc1ccccc1)C(=O)O; NMeT = CN[C@H](C(=O)O)[C@@H](C)O; NMeK = CN[C@@H](CCCCN)C(=O)O; NMeC = CN[C@@H](CS)C(=O)O
Tests used:
hSSTR-1 = target: T1, hSSTR-1 (Homo sapiens, UniProt P30872); test: Radioligand binding assay, cloned human somatostatin receptor type 1; conditions: CHO-K1 cell membranes, displacement of [125I]Tyr11-SRIF; mean ± SEM, single values = one experiment; read-out: Kd ± SEM hsst1
T1 construct: each containing the entire coding region of the full-length receptors; expressed in transfected cells
T1 sequence (P30872 whole entry): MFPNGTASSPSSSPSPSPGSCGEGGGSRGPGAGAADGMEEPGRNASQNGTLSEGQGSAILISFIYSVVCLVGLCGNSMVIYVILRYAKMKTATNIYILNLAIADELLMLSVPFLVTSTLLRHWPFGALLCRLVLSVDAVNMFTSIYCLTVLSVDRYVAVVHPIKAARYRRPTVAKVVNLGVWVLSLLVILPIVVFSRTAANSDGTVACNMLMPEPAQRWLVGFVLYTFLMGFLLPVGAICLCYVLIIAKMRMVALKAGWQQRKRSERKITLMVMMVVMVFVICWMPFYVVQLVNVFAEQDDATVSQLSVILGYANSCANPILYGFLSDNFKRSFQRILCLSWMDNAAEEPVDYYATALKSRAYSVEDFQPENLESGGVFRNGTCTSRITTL
Description: (§1) Functional Expression of the Cloned Human Somatostatin Receptors. The genomic clones containing the human somatostatin receptors (hSSTR-1 to hSSTR-5) (Yamada, Y., et al. al., Proc. Natl. Acad. Sci. USA. 1992, 89, 251-255; Yasuda, K., et al., J. Biol. Chem. 1992, 267, 20422-20428; Yamada, Y., et al., Mol. Pharmacol. 1992, 42, 2136-2142; Rohrer, L., et al., Proc. Natl. Acad. Sci. USA. 1993, 90, 4196-4200.) were kindly provided by Dr. Graeme I. Bell of the University of Chicago. The hSSTR-1, hSSTR-2, hSSTR-3, hSSTR-4 and hSSTR-5 cDNAs were isolated as a 1.5-kb PstI-XmnI fragment, 1.7-kb BamHI-HindIII fragment, 2.0-kb NcoI-HindIII fragment, 1.4-kb NheI-NdeI fragment, and a 1.2-kb HindIII-XbaI fragment, respectively, each containing the entire coding region of the full-length receptors. These fragments were independently subcloned into the corresponding restriction endonuclease sites in the mammalian expression vector pCMV5, downstream from the human cytomegalovirus (CMV) promoter, to produce the expression plasmids pCMV5/hSSTR-1, pCMV5/hSSTR-2, pCMV5/hSSTR-3, pCMV5/hSSTR-4 and pCMV5/hSSTR-5. For transfection into CHO-K1 cells, a plasmid, pRSV-neo (American Type Culture Collection, Rockville, Md.), carrying the neomycin mammalian cell selectable marker was added.
(§2) Receptor Expression and Transfection. Transfections were performed by the calcium phosphate method. CHO-K1 cells were maintained in α-minimum essential medium (α-MEM; Gibco) supplemented with 10% fetal calf serum and transfected with each of the expression plasmids using calcium phosphate precipitation. Clones that had inherited the expression plasmid were selected in α-MEM supplemented with 500 μg mL^−1 of geneticin (G418; Gibco). Independent CHO-K1 clones were picked by glass-ring cloning and expanded in culture in the selective media. Membranes were prepared from the isolated clones and hSSTR expression was initially assessed for binding with [^125I]Tyr^11-SRIF and [^125I]MK-678 (for SSTR-2).
(§3) Radioligand Binding Assays. Cell membranes of the 5 cells types were obtained from homogenates (Polytron setting 6, 15 sec) of the corresponding CHO-K1 cells, in ice-cold Tris-HCl (50 mM) and centrifuged (39000 g, 10 min×2), with an intermediate resuspension in fresh buffer. The final pellets were resuspended in Tris-HCl (10 mM) for assay. Aliquots of the membranes were incubated (30 min at 37° C.) with 0.05 nM [^125I]Tyr^11-SRIF (types 1, 3, 4, 5) or [^125I]MK-678 (type 2) in […] (pH 7.4) containing BSA (10 mg mL^−1); MgCl2 (5 mM), Trasylol (200 kIU mL^−1), bacitracin (0.02 mg mL^−1), and phenylmethanesulfonyl fluoride (0.02 mg mL^−1). The final assay volume was 0.3 mL and incubations were terminated by rapid filtration through GF/C filters pre-soaked in 0.3% poly(ethylenimine) using a Brandel rapid filtration module. Each tube and filter was then washed with aliquots of cold buffer (3×5 mL).
(§4) Specific binding is defined as the total radioligand bound minus that bound in the presence of 1.0 μM SRIF. The following total radioligand binding and non-specific binding (nsb) values were typically obtained with these assay systems: hSSTR-1, 7000 cpm total versus 3500 cpm nsb; hSSTR-2, 9000 cpm total versus 1000 cpm nsb; hSSTR-3, 8000 cpm total versus 1000 cpm nsb; hSSTR-4, 6000 cpm total versus 3500 cpm nsb; and hSSTR-5, 7500 cpm total versus 3500 cpm nsb. The binding affinities are expressed as Ki values ±SEM (nM) for each of the five receptor subtypes. Ki values derived for representative compounds of the instant invention are detailed in Table 2.
(§5) The binding affinities (Kd, nM) of all SRIF analogues were determined using their concentration-dependent displacement of ^125I-radiolabeled peptide ligands from membranes isolated from CHO cells transfected with the corresponding human somatostatin receptor.

hSSTR-2 = target: T2, hSSTR-2 (Homo sapiens, UniProt P30874); test: Radioligand binding assay, cloned human somatostatin receptor type 2; conditions: CHO-K1 cell membranes, displacement of [125I]MK-678; mean ± SEM, single values = one experiment; read-out: Kd ± SEM hsst2
T2 construct: each containing the entire coding region of the full-length receptors; expressed in transfected cells
T2 sequence (P30874 whole entry): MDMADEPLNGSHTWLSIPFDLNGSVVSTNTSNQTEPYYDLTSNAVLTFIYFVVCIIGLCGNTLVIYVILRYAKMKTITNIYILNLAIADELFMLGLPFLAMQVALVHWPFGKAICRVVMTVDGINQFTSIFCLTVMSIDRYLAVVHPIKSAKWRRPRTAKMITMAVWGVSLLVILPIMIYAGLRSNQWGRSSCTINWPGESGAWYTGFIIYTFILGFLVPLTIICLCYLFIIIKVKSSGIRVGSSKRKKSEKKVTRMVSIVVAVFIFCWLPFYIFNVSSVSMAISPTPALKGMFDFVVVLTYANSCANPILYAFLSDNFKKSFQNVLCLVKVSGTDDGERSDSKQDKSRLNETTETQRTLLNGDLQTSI
Description: as §1, §2, §3, §4, §5

hSSTR-3 = target: T3, hSSTR-3 (Homo sapiens, UniProt P32745); test: Radioligand binding assay, cloned human somatostatin receptor type 3; conditions: CHO-K1 cell membranes, displacement of [125I]Tyr11-SRIF; mean ± SEM, single values = one experiment; read-out: Kd ± SEM hsst3
T3 construct: each containing the entire coding region of the full-length receptors; expressed in transfected cells
T3 sequence (P32745 whole entry): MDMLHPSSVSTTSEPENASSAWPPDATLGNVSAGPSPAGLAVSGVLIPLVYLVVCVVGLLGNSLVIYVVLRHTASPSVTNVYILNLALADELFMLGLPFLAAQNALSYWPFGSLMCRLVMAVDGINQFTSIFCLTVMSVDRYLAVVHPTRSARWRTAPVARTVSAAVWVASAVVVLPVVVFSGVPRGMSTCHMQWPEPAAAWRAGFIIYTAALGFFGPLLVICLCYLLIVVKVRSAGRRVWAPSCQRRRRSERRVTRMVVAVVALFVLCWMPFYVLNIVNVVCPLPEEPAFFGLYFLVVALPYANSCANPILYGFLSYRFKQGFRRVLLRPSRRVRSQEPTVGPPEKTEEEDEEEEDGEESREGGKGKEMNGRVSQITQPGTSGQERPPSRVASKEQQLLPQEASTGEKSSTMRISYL
Description: as §1, §2, §3, §4, §5

hSSTR-5 = target: T4, hSSTR-5 (Homo sapiens, UniProt P35346); test: Radioligand binding assay, cloned human somatostatin receptor type 5; conditions: CHO-K1 cell membranes, displacement of [125I]Tyr11-SRIF; mean ± SEM, single values = one experiment; read-out: Kd ± SEM hsst5
T4 construct: each containing the entire coding region of the full-length receptors; expressed in transfected cells
T4 sequence (P35346 whole entry): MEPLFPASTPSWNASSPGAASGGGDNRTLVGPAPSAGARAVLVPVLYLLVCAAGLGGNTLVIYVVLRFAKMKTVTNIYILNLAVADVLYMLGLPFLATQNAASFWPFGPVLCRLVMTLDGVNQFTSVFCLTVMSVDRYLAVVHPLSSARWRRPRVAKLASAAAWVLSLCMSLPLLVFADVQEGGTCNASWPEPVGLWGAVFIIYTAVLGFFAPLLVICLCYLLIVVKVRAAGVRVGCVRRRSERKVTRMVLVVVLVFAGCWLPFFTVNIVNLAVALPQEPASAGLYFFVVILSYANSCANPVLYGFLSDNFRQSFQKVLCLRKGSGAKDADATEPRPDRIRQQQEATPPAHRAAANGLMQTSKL
Description: as §1, §2, §3, §4, §5

hSSTR-4 = target: T5, hSSTR-4 (Homo sapiens, UniProt P31391); test: Radioligand binding assay, cloned human somatostatin receptor type 4; conditions: CHO-K1 cell membranes, displacement of [125I]Tyr11-SRIF; mean ± SEM, single values = one experiment; read-out: Kd ± SEM hsst4
T5 construct: each containing the entire coding region of the full-length receptors; expressed in transfected cells
T5 sequence (P31391 whole entry): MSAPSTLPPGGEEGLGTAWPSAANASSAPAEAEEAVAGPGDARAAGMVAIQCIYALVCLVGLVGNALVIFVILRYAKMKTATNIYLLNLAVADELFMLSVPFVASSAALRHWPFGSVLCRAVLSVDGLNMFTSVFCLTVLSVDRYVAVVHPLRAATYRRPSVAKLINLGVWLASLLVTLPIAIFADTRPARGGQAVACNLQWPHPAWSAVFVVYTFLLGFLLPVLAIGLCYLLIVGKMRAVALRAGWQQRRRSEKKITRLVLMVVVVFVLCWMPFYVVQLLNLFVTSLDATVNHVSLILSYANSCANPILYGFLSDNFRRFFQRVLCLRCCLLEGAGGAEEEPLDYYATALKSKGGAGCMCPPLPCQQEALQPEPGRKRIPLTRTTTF
Description: as §1, §2, §3, §4, §5

Kd (hSSTR-2)	Kd (hSSTR-4)	SMILES	Kd (hSSTR-1)	Kd (hSSTR-3)	Kd (hSSTR-5)
1.03 ± 0.26 nM		CN[C@H](Cc1ccccc1)C(=O)N[C@H]1CSSC[C@@H](C(=O)N[C@H](C(N)=O)[C@@H](C)O)NC(=O)[C@H]([C@@H](C)O)NC(=O)[C@H](CCCCN)NC(=O)[C@@H](Cc2c[nH]c3ccccc23)NC(=O)[C@H](Cc2ccccc2)NC1=O [Example 1, NMeDPhe-cyclo(Cys-Phe-DTrp-Lys-Thr-Cys)-Thr-NH2]	316 ± 11 nM	17.9 ± 2.5 nM	4.89 ± 1.4 nM
13.2 ± 3.85 nM	> 1000 nM	C[C@@H](O)[C@H](NC(=O)[C@@H]1CSSC[C@H](NC(=O)[C@H](N)Cc2ccccc2)C(=O)N(C)[C@@H](Cc2ccccc2)C(=O)N[C@H](Cc2c[nH]c3ccccc23)C(=O)N[C@@H](CCCCN)C(=O)N[C@@H]([C@@H](C)O)C(=O)N1)C(N)=O [Example 3, DPhe-cyclo(Cys-NMePhe-DTrp-Lys-Thr-Cys)-Thr-NH2]	> 1000 nM	830 ± 86 nM	
1.84 ± 0.21 nM	> 1000 nM	C[C@@H](O)[C@H](NC(=O)[C@@H]1CSSC[C@H](NC(=O)[C@H](N)Cc2ccccc2)C(=O)N[C@@H](Cc2ccccc2)C(=O)N[C@H](Cc2c[nH]c3ccccc23)C(=O)N(C)[C@@H](CCCCN)C(=O)N[C@@H]([C@@H](C)O)C(=O)N1)C(N)=O [Example 5, DPhe-cyclo(Cys-Phe-DTrp-NMeLys-Thr-Cys)-Thr-NH2]			
14.8 ± 1.53 nM	182 nM	C[C@@H](O)[C@@H]1NC(=O)[C@H](CCCCN)NC(=O)[C@@H](Cc2c[nH]c3ccccc23)NC(=O)[C@H](Cc2ccccc2)NC(=O)[C@@H](NC(=O)[C@H](N)Cc2ccccc2)CSSC[C@@H](C(=O)N(C)[C@H](C(N)=O)[C@@H](C)O)NC1=O [Example 8, DPhe-cyclo(Cys-Phe-DTrp-Lys-Thr-Cys)-NMeThr-NH2]	> 1000 nM	124 ± 11.7 nM	
0.15 ± 0.08 nM	> 1000 nM	C[C@@H](O)[C@H](NC(=O)[C@@H]1CSSC[C@H](NC(=O)[C@H](N)Cc2ccccc2)C(=O)N[C@@H](Cc2ccccc2)C(=O)N[C@H](Cc2c[nH]c3ccccc23)C(=O)N[C@@H](CCCCN)C(=O)N[C@@H]([C@@H](C)O)C(=O)N1)C(N)=O [Example 9, DPhe-cyclo(Cys-Phe-DTrp-Lys-Thr-Cys)-Thr-NH2]	761 nM	11.8 ± 0.9 nM	
9.74 ± 1.87 nM		CN[C@@H](Cc1ccc(O)cc1)C(=O)N[C@H]1CSSC[C@@H](C(=O)N[C@H](C(N)=O)[C@@H](C)O)NC(=O)[C@H]([C@@H](C)O)NC(=O)[C@H](CCCCN)NC(=O)[C@@H](Cc2c[nH]c3ccccc23)NC(=O)[C@H](Cc2ccccc2)NC1=O [Example 10, NMeTyr-cyclo(Cys-Phe-DTrp-Lys-Thr-Cys)-Thr-NH2] (H-[NMeY]CF[dW]KTCT-NH2; disulfide 2-7; N-terminus assumed)	811 ± 188 nM		
		C[C@@H](O)[C@H](NC(=O)[C@@H]1CSSC[C@H](NC(=O)[C@@H](N)Cc2ccc(O)cc2)C(=O)N(C)[C@@H](Cc2ccccc2)C(=O)N[C@H](Cc2c[nH]c3ccccc23)C(=O)N[C@@H](CCCCN)C(=O)N[C@@H]([C@@H](C)O)C(=O)N1)C(N)=O [Example 12, Tyr-cyclo(Cys-NMePhe-DTrp-Lys-Thr-Cys)-Thr-NH2] (H-YC[NMeF][dW]KTCT-NH2; disulfide 2-7; N-terminus assumed)	653 ± 245 nM	94.2 ± 16.7 nM	

SMILES	Kd (hSSTR-2)	Kd (hSSTR-4)	Kd (hSSTR-1)	Kd (hSSTR-3)	Kd (hSSTR-5)
C[C@@H](O)[C@H](NC(=O)[C@@H]1CSSC[C@H](N(C)C(=O)[C@@H](N)Cc2ccc(O)cc2)C(=O)N[C@@H](Cc2ccccc2)C(=O)N[C@H](Cc2c[nH]c3ccccc23)C(=O)N[C@@H](CCCCN)C(=O)N[C@@H]([C@@H](C)O)C(=O)N1)C(N)=O [Example 11, Tyr-cyclo(NMeCys-Phe-DTrp-Lys-Thr-Cys)-Thr-NH2] (H-Y[NMeC]F[dW]KTCT-NH2; disulfide 2-7; N-terminus assumed)	8.96 ± 1.66 nM			2.73 ± 2.43 nM	114 nM
C[C@@H](O)[C@H](NC(=O)[C@@H]1CSSC[C@H](NC(=O)[C@@H](N)Cc2ccc(O)cc2)C(=O)N[C@@H](Cc2ccccc2)C(=O)N(C)[C@H](Cc2c[nH]c3ccccc23)C(=O)N[C@@H](CCCCN)C(=O)N[C@@H]([C@@H](C)O)C(=O)N1)C(N)=O [Example 13, Tyr-cyclo(Cys-Phe-NMeDTrp-Lys-Thr-Cys)-Thr-NH2] (H-YCF[dNMeW]KTCT-NH2; disulfide 2-7; N-terminus assumed)	120 ± 22.2 nM		1000 nM		
C[C@@H](O)[C@H](NC(=O)[C@@H]1CSSC[C@H](NC(=O)[C@@H](N)Cc2ccc(O)cc2)C(=O)N[C@@H](Cc2ccccc2)C(=O)N[C@H](Cc2c[nH]c3ccccc23)C(=O)N(C)[C@@H](CCCCN)C(=O)N[C@@H]([C@@H](C)O)C(=O)N1)C(N)=O [Example 14, Tyr-cyclo(Cys-Phe-DTrp-NMeLys-Thr-Cys)-Thr-NH2] (H-YCF[dW][NMeK]TCT-NH2; disulfide 2-7; N-terminus assumed)	14.2 ± 3.12 nM		956 ± 43 nM	51 ± 6.93 nM	
C[C@@H](O)[C@H](NC(=O)[C@@H]1CSSC[C@H](NC(=O)[C@@H](N)Cc2ccc(O)cc2)C(=O)N[C@@H](Cc2ccccc2)C(=O)N[C@H](Cc2c[nH]c3ccccc23)C(=O)N[C@@H](CCCCN)C(=O)N[C@@H]([C@@H](C)O)C(=O)N1C)C(N)=O [Example 16, Tyr-cyclo(Cys-Phe-DTrp-Lys-Thr-NMeCys)-Thr-NH2] (H-YCF[dW]KT[NMeC]T-NH2; disulfide 2-7; N-terminus assumed)		321 nM	1260 nM		
C[C@@H](O)[C@@H]1NC(=O)[C@H](CCCCN)NC(=O)[C@@H](Cc2c[nH]c3ccccc23)NC(=O)[C@H](Cc2ccccc2)NC(=O)[C@@H](NC(=O)[C@@H](N)Cc2ccc(O)cc2)CSSC[C@@H](C(=O)N(C)[C@H](C(N)=O)[C@@H](C)O)NC1=O [Example 17, Tyr-cyclo(Cys-Phe-DTrp-Lys-Thr-Cys)-NMeThr-NH2] (H-YCF[dW]KTC[NMeT]-NH2; disulfide 2-7; N-terminus assumed)	26.2 ± 10.3 nM	353 nM	611 ± 3.5 nM	535 ± 200 nM	
C[C@@H](O)[C@H](NC(=O)[C@@H]1CSSC[C@H](NC(=O)[C@@H](N)Cc2ccc(O)cc2)C(=O)N[C@@H](Cc2ccccc2)C(=O)N[C@H](Cc2c[nH]c3ccccc23)C(=O)N[C@@H](CCCCN)C(=O)N[C@@H]([C@@H](C)O)C(=O)N1)C(N)=O [Example 18, Tyr-cyclo(Cys-Phe-DTrp-Lys-Thr-Cys)-Thr-NH2] (H-YCF[dW]KTCT-NH2; disulfide 2-7; N-terminus assumed)	10.3 ± 3.53 nM		1000 nM	18.2 ± 4.21 nM	
